How the values were obtained:
blood brain barrier [1] = assay: Evans Blue dye extravasation across the blood brain barrier; assay type: in vivo, mice; conditions: single i.v. injection 100 μl 0.01 nM, 1 h before dye
Protocol: The objective of this experiment was to determine if the blood brain barrier could be modulated by activation of adenosine receptors. NECA is a non-selective adenosine receptor agonist, with similar affinities for A1, A2A and A3 adenosine receptors and a low affinity for the A2b adenosine receptor. In order to determine if activation of adenosine receptors would induce extravasation of Evans Blue dye across the blood brain barrier (BBB), mice were treated with: NECA, a non-selective adenosine receptor agonist (n=5, 100 μl 0.01 nM); SCH58261, an A2A adenosine receptor specific antagonist (n=5, 1 mg/kg); pertussis toxin, an agent known to induce BBB leakiness and as such used as a positive control (n=7, 200 μl); and, PBS as a vehicle control (n=5, 100 μl). CD73^−/− mice, which lack the ability to produce extracellular adenosine, were also treated with NECA (n=4, 100 μl 0.01 nM). Treatments were administered as a single i.v. injection one hour prior to i.v. injection of 200 μl 1% Evans Blue dye ([…] total dye injected). Four hours after administration of Evans Blue, mice were anesthetized with a ketamine/xylazine mix and perfused via the left ventricle with ice cold PBS. […] Following extraction, the tissue/solvent mixture was centrifuged at 500×g for 30 minutes and 100 μl of supernatant was read on a BioTex spectrophotometer at 620 nm. Data is expressed as μg Evans Blue/ml DMF.

blood brain barrier [2] = assay: Fluorimetric analysis of labeled dextrans in brain after i.v. drug administration; assay type: in vivo, mice
Protocol: C57BL/6 mice from Jackson Laboratories were used as wild types. All mice used were aged 7-9 weeks and weighed between 20-25 g. All rats were aged 8 weeks and weighed 200-220 g. Mice and rats were bred and housed under specific pathogen-free conditions.
The adenosine receptor agonists NECA, CCPA and CGS 21860 were purchased from Tocris. Each was dissolved in DMSO then diluted in PBS to the desired concentration; in most cases final DMSO concentrations were <0.5% (vol/vol). For vehicle controls, DMSO was diluted in PBS to the same concentration. Dehydrated dextrans labeled with either FITC or Texas Red were purchased from Invitrogen and re-suspended in PBS to 10 mg ml^−1. All experiments involving dextran injection used 0.5 mg dextran in PBS. In experiments where drug and dextran were injected concomitantly, 0.5 mg of dextran was mixed with the drug to the desired concentration in a final volume of 200 μl. All injections were retro-orbital i.v. with a 27-gauge needle. In the SCH 58261 experiment, groups were administered vehicle or SCH 58261 for 4 d. Vehicle/drug and dextrans were injected on day 5 and tissues were collected 3 h after vehicle/drug administration. In Lexiscan experiments, Lexiscan was administered i.v. with 3 injections, 5 min apart and tissues were collected at 15 min unless otherwise indicated.
In dose-response experiments and experiments with the A1 AR and A2A AR knock-out mice, drugs and dextrans were injected concomitantly. After 3 h, the mice were anesthetized with ketamine/xylazine and subjected to a nose cone containing isoflurane. They were perfused with 25-50 ml ice-cold PBS through the left ventricle of the heart then decapitated. Their brains were removed, weighed and frozen for later analysis.
Ice-cold 50 mM Tris-Cl (pH 7.6) was added to frozen brains (100 μl per 100 mg brain) and were to thawed on ice. They were homogenized manually with ˜45 strokes of a dounce homogenizer in plastic 1.5 ml microfuge tubes then spun at 16.1 g in a microfuge for 30 min at room temperature (rt). The supernatants were transferred to new tubes and an equal volume absolute methanol was added. The samples were spun again at 16.1 g for 30 min at rt. Supernatant (200 μl) was transferred to a Corning costar 96 well black polystyrene assay plate (clear bottom). Additionally, a series of standards containing 0.001-10 μg ml^−1 dextran in 50% Tris-Cl/50% absolute methanol (vol/vol) was added to each plate. Absolute concentrations of dextrans were derived from these standard curves. Fluorimetric analysis was performed on a BioTek Synergy 4. FITC-dextran was detected at 488/519 (excitation/emission) and Texas Red-dextran was detected at 592/618.

[3] = WT mice, 3 h after i.v. administration

CCNC(=O)[C@H]1O[C@@H](n2cnc3c(N)ncnc32)[C@H](O)[C@@H]1O [NECA, 5′-N-ethylcarboxamidoadenosine]
Evans Blue dye migration across the BBB vs. PBS control (blood brain barrier [1]; CD73−/− mice): almost five fold increase
Evans Blue dye migration across the BBB vs. control mice (blood brain barrier [1]; WT mice): increase over control mice
levels of i.v.-administered 10,000 Da dextrans in brain compared to wild type mice (blood brain barrier [2]; A1−/− mice, 3 h after i.v. administration): significantly lower levels
levels of i.v.-administered 10,000 Da dextrans in brain compared to wild type mice (blood brain barrier [2]; A2A−/− mice, 3 h after i.v. administration): significantly lower levels
time of maximum entry of labeled dextran into the CNS post-treatment (blood brain barrier [2]; WT mice, 10,000 Da FITC-dextran co-administered with drug at T0): 4 to 6 h
CNS entry of 10,000 Da dextrans compared to vehicle (blood brain barrier [2]; [3]): dose-dependent increase
CNS entry of 70,000 Da dextrans compared to vehicle (blood brain barrier [2]; [3]): dose-dependent increase
time post-treatment by which dextran levels returned to baseline (blood brain barrier [2]; WT mice, Texas Red-dextran injected after drug, 19.5 h collection time): ≤ 18 h
detectable levels of dextran in the brain at 8 h post-treatment (blood brain barrier [2]; WT mice, Texas Red-dextran injected at indicated time after drug, 9.5 h collection time): decreased from the maximum
dose giving maximum entry of dextrans into the CNS (blood brain barrier [2]; WT mice, i.v., 100 μl of 25 μM): 0.80 µg

Reference: patent US20110262442A1, “COMPOSITIONS FOR TREATING CNS DISORDERS” (Adenios, Inc., priority 2009, published 2011)
